Experiments:
[1] = target: influenza virus A/WSN/33 NA-Y155H (Influenza A virus, UniProt P03470, Y139H); assay type: biochemical, influenza A virus A/WSN/1933 (H1N1)
[2] = tested on: influenza virus A/WSN/33 NA-I427Q
[3] = target: influenza virus A/WSN/33 NA-N294S (Influenza A virus, UniProt P03470, N279S); assay type: biochemical, influenza A virus A/WSN/1933 (H1N1)
[4] = target: influenza virus A/WSN/33 NA-H274Y (Influenza A virus, UniProt P03470, H259Y); assay type: biochemical, influenza A virus A/WSN/1933 (H1N1)
[5] = target: influenza virus A/WSN/33 NA-Q136L (Influenza A virus, UniProt P03470, Q120L); assay type: biochemical, influenza A virus A/WSN/1933 (H1N1)
[6] = tested on: influenza virus A/WSN/33 NA-I427M
[7] = target: influenza virus A/WSN/33 NA-I427Q (Influenza A virus, UniProt P03470, I411Q); conditions: read-out: IC50, NA-I427Q
[8] = target: influenza virus A/WSN/33 NA-I427M (Influenza A virus, UniProt P03470, I411M); conditions: read-out: IC50, NA-I427M
[9] = target: IAV WSN/33 NA-wt (whole virus) (Influenza A virus, UniProt P03470); assay: biochemical; design: species or system influenza A virus A/WSN/1933 (H1N1); conditions: read-out: IC50, NA-wt

SMILES | FC, NA-Y155H [1] | FC, NA-I427Q [2] | FC, NA-N294S [3] | FC, NA-H274Y [4] | FC, NA-Q136L [5] | FC, NA-I427M [6] | IC50 [1] | IC50 [7] | IC50 [3] | IC50 [4] | IC50 [5] | IC50 [8] | IC50 [9]
Cc1cc(N=Nc2ccc(N=Nc3c(O)c(S(=O)(=O)O)cc4cc(S(=O)(=O)O)ccc34)cc2C)ccc1N=Nc1ccc2cc(S(=O)(=O)O)cc(S(=O)(=O)O)c2c1 [Compound 1, 7-[2-[4-[2-[4-[2-(2-hydroxy-3,6-disulfo-1-naphthalenyl)diazenyl]-2-methylphenyl]diazenyl]-2-methylphenyl]diazenyl]-1,3-naphthalenedisulfonic acid] | 1 | 1 | 1 | 3 | 2 | 2 |  |  |  |  |  |  | 
O=S(=O)(O)c1ccc2c(/N=N/c3ccc(Sc4ccc(/N=N/c5c(O)ccc6cc(S(=O)(=O)O)ccc56)cc4)cc3)c(O)ccc2c1 [Compound 2] | 0.2 | 1 | 1 | 2 | 2 | 1 |  |  |  |  |  |  | 
Cc1ccccc1/N=N/c1ccc(/N=N/c2c(O)ccc3cc(S(=O)(=O)O)cc(S(=O)(=O)O)c23)c(C)c1 [Compound 5] | 1 | 2 | 3 | 3 | 2 | 2 |  |  |  |  |  |  | 
CC(=O)N[C@H]1[C@H]([C@H](O)[C@H](O)CO)OC(C(=O)O)=C[C@@H]1O [DANA, 2,3-dehydro-2-deoxy-N-acetylneuraminic acid, reference compound] | 3 |  | 3 | 1 | 1 | 1 | 8360 ± 3130 nM | 12800 ± 750 nM | 8120 ± 2070 nM | 2510 ± 1380 nM | 2330 ± 1320 nM | 2210 ± 620 nM | 2440 ± 1080 nM

— publication PMC5309245, “Discovery and Characterization of Diazenylaryl Sulfonic Acids as Inhibitors of Viral and Bacterial Neuraminidases” (Frontiers in Microbiology, 2017)
